2 substances from article PMC7413254 (Nature Communications, 2020) can be followed below.

What all share (format): cell-based
Test [1] deals with T1, PfCRT^Dd2 (Plasmodium falciparum, UniProt Q9N623, A220S/I356T/K76T/M74I/N326S/N75E/Q271E/R371I). Kind of test: [3H]CQ uptake into Xenopus oocytes, cis-inhibition by unlabelled solute. The note with it: PfCRTDd2 oocytes, background [3H]CQ accumulation subtracted, normalised to oocyte type control. In outline:
(§1)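 Assay buffer ND96 (10 mM MES, 10 mM Tris-base) held at pH 5.5 to mimic vacuole lumen; uptake measured inward from this acidic medium over 1.5 h at 27.5 °C.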

Test [2] concerns the target T2, PfCRT^Ecu1110 (Plasmodium falciparum, UniProt Q9N623, A220S/I356L/K76T/N326D). The test is described as above. The following applies: for PfCRT-mediated [3H]CQ transport, cis-inhibition (% PfCRTEcu1110 control): PfCRTEcu1110 oocytes, background [3H]CQ accumulation subtracted, normalised to oocyte type control; for [3H]CQ transport (% PfCRTEcu1110 control), cis-inhibition, PfCRTEcu1110: PfCRT-mediated component (background subtracted), sheet title says normalised to PfCRTDd2 control, mean ± SEM, SEM. In outline: as §1

The target of test [3] is T1, PfCRT^Dd2. Nature of the test: cell-based. The following applies: for PfCRT-mediated [3H]CQ transport, trans-stimulation (% PfCRTDd2 control): PfCRTDd2 oocytes, normalised to oocyte type control; for [3H]CQ transport (% PfCRTDd2 control), trans-stimulation, PfCRTDd2: PfCRT-mediated component (background subtracted), mean ± SEM, SEM. In outline:
(§2)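 Transport measured in Xenopus oocytes expressing the transporters, 1.5 h at 27.5 °C in ND96 pH 5.5 unless noted. For trans-stimulation, VF-6 injected in 25 nL ND96 at pH 5.0–7.0 or Na^+-free (choline) buffer; intracellular levels based on ~400 nL oocyte volume. Ten oocytes per treatment, ≥4 experiments.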

Test [4] concerns the target T2, PfCRT^Ecu1110. Nature of the test: cell-based. The note with it: for PfCRT-mediated [3H]CQ transport, trans-stimulation (% PfCRTEcu1110 control): PfCRTEcu1110 oocytes, normalised to oocyte type control; for [3H]CQ transport (% PfCRTDd2 control), trans-stimulation, PfCRTEcu1110: PfCRT-mediated component (background subtracted), sheet title says normalised to PfCRTDd2 control, mean ± SEM, SEM. In outline:
as §2

The next test concerns the target PfCRT^3D7 (Plasmodium falciparum, UniProt Q8IBZ9). Nature of the test: cell-based. The note with it: PfCRT3D7 oocytes, normalised to oocyte type control. In outline: as §2
[5] abbreviates: [test solute]i = 5 mM (intracellular).
The mark [6] stands for this setting: [test solute]i = 45 mM (intracellular; 30 mM for some solutes due to solubility).
The mark [7] stands for this setting: [test solute]i = 5 mM (injected).
The mark [8] stands for this setting: [test solute]i = 45 mM (30 mM for some solutes due to solubility).

T2 sequence (Q9N623 whole entry A220S/I356L/K76T/N326D): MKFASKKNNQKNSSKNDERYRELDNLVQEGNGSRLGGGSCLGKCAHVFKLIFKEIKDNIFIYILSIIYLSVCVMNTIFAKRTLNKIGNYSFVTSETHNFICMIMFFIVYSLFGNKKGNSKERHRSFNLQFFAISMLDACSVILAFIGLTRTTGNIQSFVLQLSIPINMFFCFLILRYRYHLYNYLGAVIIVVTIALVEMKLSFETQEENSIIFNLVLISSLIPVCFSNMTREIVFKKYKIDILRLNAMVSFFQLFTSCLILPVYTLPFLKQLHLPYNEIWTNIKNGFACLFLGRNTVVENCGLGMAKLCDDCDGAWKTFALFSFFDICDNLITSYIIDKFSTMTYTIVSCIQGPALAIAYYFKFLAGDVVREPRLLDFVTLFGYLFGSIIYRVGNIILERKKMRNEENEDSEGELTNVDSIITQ
T1 sequence (Q9N623 whole entry A220S/I356T/K76T/M74I/N326S/N75E/Q271E/R371I): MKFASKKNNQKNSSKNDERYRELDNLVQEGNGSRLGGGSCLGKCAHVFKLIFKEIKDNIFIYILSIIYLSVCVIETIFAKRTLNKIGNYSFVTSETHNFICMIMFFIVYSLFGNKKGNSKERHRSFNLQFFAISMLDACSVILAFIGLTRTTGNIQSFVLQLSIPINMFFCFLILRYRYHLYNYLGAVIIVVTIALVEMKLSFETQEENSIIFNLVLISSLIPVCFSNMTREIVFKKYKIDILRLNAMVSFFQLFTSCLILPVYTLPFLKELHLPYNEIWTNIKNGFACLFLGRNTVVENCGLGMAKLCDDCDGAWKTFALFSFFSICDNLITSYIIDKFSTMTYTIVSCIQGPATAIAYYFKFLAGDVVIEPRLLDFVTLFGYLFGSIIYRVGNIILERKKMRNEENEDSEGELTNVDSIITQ
PfCRT^3D7, sequence (Q8IBZ9 59-398): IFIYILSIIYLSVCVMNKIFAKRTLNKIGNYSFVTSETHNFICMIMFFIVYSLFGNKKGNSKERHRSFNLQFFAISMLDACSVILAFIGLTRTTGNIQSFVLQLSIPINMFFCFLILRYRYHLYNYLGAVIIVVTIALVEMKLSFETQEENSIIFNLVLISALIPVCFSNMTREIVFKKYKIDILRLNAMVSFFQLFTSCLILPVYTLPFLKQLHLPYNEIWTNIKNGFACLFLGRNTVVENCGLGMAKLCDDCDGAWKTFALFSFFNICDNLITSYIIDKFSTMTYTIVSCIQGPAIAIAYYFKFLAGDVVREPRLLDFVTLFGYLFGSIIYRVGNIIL

For HVDDMP [HP-6], the “PfCRT-mediated [3H]CQ transport, cis-inhibition (% PfCRTDd2 control)” value on PfCRT^Dd2 [1] ([test solute] = 0.5 mM) was 22 ± 2.9 % PfCRTDd2 control; on PfCRT^Dd2 [1] ([test solute] = 1 mM) it was 16 ± 1.2 % PfCRTDd2 control; on PfCRT^Dd2 [1] ([test solute] = 2 mM) it was 4.1 ± 0.1 % PfCRTDd2 control. The “PfCRT-mediated [3H]CQ transport, cis-inhibition (% PfCRTEcu1110 control)” value came out at 40 ± 1.0 % PfCRTEcu1110 control on PfCRT^Ecu1110 [2] ([test solute] = 0.5 mM), 31 ± 1.6 % PfCRTEcu1110 control at PfCRT^Ecu1110 [2] ([test solute] = 1 mM) and 21 ± 1.6 % PfCRTEcu1110 control on PfCRT^Ecu1110 [2] ([test solute] = 2 mM). Moreover, the “[3H]CQ transport (% PfCRTEcu1110 control), cis-inhibition, PfCRTEcu1110” value at PfCRT^Ecu1110 [2] ([test solute] = 2 mM) is listed as 7.0 ± 0.02 % PfCRTEcu1110 control. In addition, the “PfCRT-mediated [3H]CQ transport, trans-stimulation (% PfCRTDd2 control)” value at PfCRT^Dd2 [3] (setting [5]) worked out at 103 ± 1.1 % PfCRTDd2 control; on PfCRT^Dd2 [3] (setting [6]), 112 ± 1.1 % PfCRTDd2 control. Moreover, the “[3H]CQ transport (% PfCRTDd2 control), trans-stimulation, PfCRTDd2” value on PfCRT^Dd2 [3] (setting [7]) was 103 ± 1.1 % PfCRTDd2 control; on PfCRT^Dd2 [3] (setting [8]) it was 112 ± 1.1 % PfCRTDd2 control. Moreover, the results for the “PfCRT-mediated [3H]CQ transport, trans-stimulation (% PfCRTEcu1110 control)” value on PfCRT^Ecu1110 [4] (setting [5]) and at PfCRT^Ecu1110 [4] (setting [6]) were 122 ± 4.2 % PfCRTEcu1110 control and 139 ± 3.4 % PfCRTEcu1110 control, respectively. The “[3H]CQ transport (% PfCRTDd2 control), trans-stimulation, PfCRTEcu1110” value came out at 36 ± 1.3 % PfCRTEcu1110 control on PfCRT^Ecu1110 [4] (setting [7]) and 42 ± 1.3 % PfCRTEcu1110 control on PfCRT^Ecu1110 [4] (setting [8]). Moreover, the “PfCRT-mediated [3H]CQ transport, trans-stimulation (% PfCRT3D7 control)” value on PfCRT^3D7 (setting [5]) came to 142 ± 3.3 % PfCRT3D7 control; at PfCRT^3D7 (setting [6]) it was 190 ± 4.3 % PfCRT3D7 control.
As for HVDDMPN [HN-7], the “PfCRT-mediated [3H]CQ transport, cis-inhibition (% PfCRTDd2 control)” value on PfCRT^Dd2 [1] ([test solute] = 0.5 mM) was 37 ± 1.7 % PfCRTDd2 control; at PfCRT^Dd2 [1] ([test solute] = 1 mM) it was 20 ± 0.5 % PfCRTDd2 control; on PfCRT^Dd2 [1] ([test solute] = 2 mM), 9.2 ± 1.1 % PfCRTDd2 control. Further, the “PfCRT-mediated [3H]CQ transport, cis-inhibition (% PfCRTEcu1110 control)” value at PfCRT^Ecu1110 [2] ([test solute] = 0.5 mM) is on record as 36 ± 1.6 % PfCRTEcu1110 control; at PfCRT^Ecu1110 [2] ([test solute] = 1 mM), 31 ± 3.5 % PfCRTEcu1110 control; on PfCRT^Ecu1110 [2] ([test solute] = 2 mM) it was 21 ± 1.3 % PfCRTEcu1110 control. Moreover, the “[3H]CQ transport (% PfCRTEcu1110 control), cis-inhibition, PfCRTEcu1110” value at PfCRT^Ecu1110 [2] ([test solute] = 0.5 mM) is on record as 11 ± 0.6 % PfCRTEcu1110 control; on PfCRT^Ecu1110 [2] ([test solute] = 2 mM), 7.0 ± 0.05 % PfCRTEcu1110 control. The “PfCRT-mediated [3H]CQ transport, trans-stimulation (% PfCRTDd2 control)” value at PfCRT^Dd2 [3] (setting [5]) was 100 ± 3.2 % PfCRTDd2 control; on PfCRT^Dd2 [3] (setting [6]) it was 98 ± 3.5 % PfCRTDd2 control. Besides, the “[3H]CQ transport (% PfCRTDd2 control), trans-stimulation, PfCRTDd2” value is listed as 100 ± 3.2 % PfCRTDd2 control at PfCRT^Dd2 [3] (setting [7]) and 98 ± 3.5 % PfCRTDd2 control at PfCRT^Dd2 [3] (setting [8]). For the same substance, the figures for the “PfCRT-mediated [3H]CQ transport, trans-stimulation (% PfCRTEcu1110 control)” value at PfCRT^Ecu1110 [4] (setting [5]) and on PfCRT^Ecu1110 [4] (setting [6]) were 132 ± 4.3 % PfCRTEcu1110 control and 140 ± 4.2 % PfCRTEcu1110 control, respectively. The “[3H]CQ transport (% PfCRTDd2 control), trans-stimulation, PfCRTEcu1110” value at PfCRT^Ecu1110 [4] (setting [7]) is 40 ± 2.5 % PfCRTEcu1110 control; on PfCRT^Ecu1110 [4] (setting [8]), 42 ± 2.4 % PfCRTEcu1110 control. Besides, the “PfCRT-mediated [3H]CQ transport, trans-stimulation (% PfCRT3D7 control)” value on PfCRT^3D7 (setting [5]) was found to be 142 ± 4.5 % PfCRT3D7 control; on PfCRT^3D7 (setting [6]), 187 ± 4.5 % PfCRT3D7 control.
